Laboratory results as given in US7329655B2, “Nitrogenous heterocyclic compounds” (Millennium Pharmaceuticals, Inc., priority 2000, dated 2008).
pIC50: −log10 of the molar value.

How the values were obtained:
[1] = target: T1, human β-PDGFR (Homo sapiens, UniProt P09619); test: HR5 phosphorylation assay; format: cell-based; settings: HR5 cells (CHO overexpressing human β-PDGFR), 8 nM PDGF BB; inhibition of PDGF receptor phosphorylation
T1 construct: host or cells: CHO cells (HR5 line)
Experimental: The HR5 cell line is a cell line of CHO cells engineered to overexpress human β-PDGFR, which cell line is available from the ATCC. The expression level of β-PDGFR in HR5 cells is around 5×10^4 receptor per cell. For the phosphorylation assay according to the invention, HR5 cells were grown to confluency in 96-well microtiter plates under standard tissue culture conditions, followed by serum-starvation for 16 hours. Quiescent cells were incubated at 37° C. without or with increasing concentrations of the test compound (0.01-30 uM) for 30 minutes followed by the addition of 8 nM PDGF BB for 10 minutes. Cells were lysed in 100 mM Tris, pH 7.5, 750 mM NaCl, 0.5% Triton X-100, 10 mM sodium pyrophosphate, 50 mM NaF, 10 ug/ml aprotinin, […] leupeptin, 1 mM phenylmethylsulfonyl fluoride, 1 mM sodium vanadate, and the lysate was cleared by centrifugation at 15,000×g for 5 minutes. Clarified lysates were transferred into a second microtiter plate in which the wells were previously coated with 500 ng/well of 1B5B11 anti-β-PDGFR mAb, and then incubated for two hours at room temperature. […] Wells were washed prior to adding ABTS (Sigma), and the rate of substrate formation was monitored at 650 nm. […]

[2] = target: T2, endogenous β-PDGFR (Homo sapiens, UniProt P09619); test: MG63 phosphorylation assay; format: cell-based; settings: MG63 human osteosarcoma cells, PDGF-BB stimulation in the presence of 45% human plasma; inhibition of PDGF receptor phosphorylation; read-out: MG63 w/human plasma IC50
T2 construct: This assay is for measuring endogenous β-PDGFR phosphorylation in MG63 cells; host or cells: MG63 human osteosarcoma cells
T2 sequence (P09619 33-1106): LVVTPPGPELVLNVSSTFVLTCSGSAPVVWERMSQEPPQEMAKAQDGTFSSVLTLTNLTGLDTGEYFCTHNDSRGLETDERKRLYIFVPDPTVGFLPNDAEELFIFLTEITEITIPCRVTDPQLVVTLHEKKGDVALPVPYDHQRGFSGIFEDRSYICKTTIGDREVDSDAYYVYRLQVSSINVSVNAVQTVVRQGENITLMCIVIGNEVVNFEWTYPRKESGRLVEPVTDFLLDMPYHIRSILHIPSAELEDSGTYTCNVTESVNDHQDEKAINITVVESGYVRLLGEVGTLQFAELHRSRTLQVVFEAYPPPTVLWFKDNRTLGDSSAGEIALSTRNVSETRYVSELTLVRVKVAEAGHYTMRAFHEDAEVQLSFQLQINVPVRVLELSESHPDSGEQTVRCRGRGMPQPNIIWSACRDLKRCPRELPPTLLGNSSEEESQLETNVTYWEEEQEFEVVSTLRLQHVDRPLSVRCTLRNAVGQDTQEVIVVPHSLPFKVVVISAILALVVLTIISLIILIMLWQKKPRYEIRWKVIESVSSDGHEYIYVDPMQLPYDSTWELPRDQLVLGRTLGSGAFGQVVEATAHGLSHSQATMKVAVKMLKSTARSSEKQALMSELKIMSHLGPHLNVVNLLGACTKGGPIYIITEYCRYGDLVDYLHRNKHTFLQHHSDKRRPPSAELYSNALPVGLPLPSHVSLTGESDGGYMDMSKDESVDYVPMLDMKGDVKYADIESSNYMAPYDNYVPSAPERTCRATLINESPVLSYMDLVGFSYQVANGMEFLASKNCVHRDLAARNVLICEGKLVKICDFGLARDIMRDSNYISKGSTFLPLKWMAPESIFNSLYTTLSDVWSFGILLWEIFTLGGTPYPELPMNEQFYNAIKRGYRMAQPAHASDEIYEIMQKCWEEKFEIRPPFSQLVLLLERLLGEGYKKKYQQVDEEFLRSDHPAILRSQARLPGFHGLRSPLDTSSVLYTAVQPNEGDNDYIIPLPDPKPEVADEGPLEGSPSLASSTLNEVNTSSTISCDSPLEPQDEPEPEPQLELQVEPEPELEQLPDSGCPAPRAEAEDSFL

T1 sequence (P09619 33-1106): as above

pIC50 [1]	pIC50 [2]	SMILES
7.30	6.89	COc1cc2c(N3CCN(C(=S)NCc4ccc5c(c4)OCO5)CC3)ncnc2cc1OCCN1CCCCC1 [Example 1]
7.70	7.33	COc1cc2c(N3CCN(C(=S)NCc4cnc(C)cn4)CC3)ncnc2cc1OCCN1CCCCC1 [Example 2, {4-[6-methoxy-7-(2-piperidylethoxy)quinazolin-4-yl]piperazinyl}{[(5-methylpyrazin-2-yl)methyl]amino}methane-1-thione]
